The record followed here is ChEMBL document CHEMBL3045104, “Synthesis and antibacterial activity of 4-benzoyl-1-(4-carboxy-phenyl)-5-phenyl-1H-pyrazole-3-carboxylic acid and derivatives” (2009).

What all share (assay type): functional
Test [1] has as its system Staphylococcus aureus. In words: Antimicrobial activity against Staphylococcus aureus ATCC 29213 after overnight incubation by microdilution broth susceptibility assay. (In broth dilution the organism is exposed to a series of concentrations in liquid medium.)
Test [2] has as its system Proteus vulgaris. The test is described as follows: Antimicrobial activity against Proteus vulgaris Kuk. 1329 after overnight incubation by microdilution broth susceptibility assay.
Test [3] concerns Klebsiella pneumoniae. The test is described as follows: Antimicrobial activity against Klebsiella pneumoniae A137 after overnight incubation by microdilution broth susceptibility assay.
Test [4] deals with Xanthomonas campestris. The test is described as follows: Antimicrobial activity against Xanthomonas campestris A235 after overnight incubation by microdilution broth susceptibility assay.
The test system of test [5] is Salmonella enteritidis. In words: Antimicrobial activity against Salmonella enterica subsp. enterica serovar Enteritidis ATCC 1376 after overnight incubation by microdilution broth susceptibility assay.
Test [6] relates to Enterococcus faecalis. In words: Antimicrobial activity against Enterococcus faecalis ATCC 29122 after overnight incubation by microdilution broth susceptibility assay.
In test [7] the test system is Pseudomonas aeruginosa. In words: Antimicrobial activity against Pseudomonas aeruginosa ATCC 9027 after overnight incubation by microdilution broth susceptibility assay.
For test [8], the system named is Bacillus subtilis. The test is described as follows: Antimicrobial activity against Bacillus subtilis ATCC 6633 after overnight incubation by microdilution broth susceptibility assay.
The subject of test [9] is Escherichia coli. In words: Antimicrobial activity against Escherichia coli B3704 after overnight incubation by microdilution broth susceptibility assay.
Test [10] deals with Streptococcus pyogenes. In words: Antimicrobial activity against Streptococcus pyogenes ATCC 176 after overnight incubation by microdilution broth susceptibility assay.

The structures appear in SMILES notation. In brackets after ≈: the same amount, converted by molar mass. Activity calls are given as the source filed them. The calls are words filed in the database; no cut-off is given here.

The term MIC denotes the least concentration at which growth counts as inhibited.

Consider `CCNC(=O)c1ccc(-n2nc(C(=O)NCC)c(C(=O)c3ccccc3)c2-c2ccccc2)cc1`, for which the MIC entry in test [1], in test [2], in test [5], in [6], in [7] and in [10] was “inactive” each time. The MIC in test [3] came out at 137 µM (≈ 63.9 µg/mL); in [4], 274 µM (≈ 128 µg/mL); in [8] it was 274 µM (≈ 128 µg/mL); in test [9], 137 µM (≈ 63.9 µg/mL).

As to `CCCCCNC(=O)c1ccc(-n2nc(C(=O)NCCCCC)c(C(=O)c3ccccc3)c2-c2ccccc2)cc1`, the MIC result in test [1], in test [2], in [4], in test [5], in [6] and in test [7] was “inactive” each time. In addition, in test [10], the MIC result was “inactive”. Further, the MIC in test [3] stood at 116 µM (≈ 63.9 µg/mL); in test [8], 232 µM (≈ 128 µg/mL); in test [9] it was 116 µM (≈ 63.9 µg/mL).
